Assay results reported in patent publication US20210085640A1, “ACYLATED CATECHIN POLYPHENOLS AND METHODS OF THEIR USE FOR THE TREATMENT OF CANCER” (Flagship Pioneering Innovations V, Inc., priority 2018, published 2021).

Key:
Format in all cases: cell-based
T24 bladder cancer cells = experiment: Cancer cell survival (CellTiter-Glo), T24; conditions: Homo sapiens, 72 h, read-out: Cell survival at given concentration
Procedure, shortened: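 Viability by CellTiter-Glo after 72 h compound treatment of T24 bladder cancer cells (4×10^3/well, plated the night before), nine concentration levels in triplicate. Percent survival normalised to untreated cells minus medium background, from which IC50 was determined.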

[1] = test system: Daudi lymphoma cancer cells; experiment: Cancer cell survival (CellTiter-Glo), Daudi; conditions: Homo sapiens, 72 h, read-out: Cell survival at given concentration
Procedure, shortened: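 Daudi cells (4×10^3/well) were exposed for 72 h at 37 °C to nine concentrations of compound, added as 10× solutions spanning 1 μM–10 mM (fatty acids) or 100 nM–1 mM (others). CellTiter-Glo luminescence gave % survival versus untreated, medium-blank corrected; IC50 derived.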

MCF7 breast cancer cells = experiment: Cancer cell survival (CellTiter-Glo), MCF7; conditions: Homo sapiens, 72 h, read-out: Cell survival at given concentration
Procedure, shortened: (§1)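 CellTiter-Glo luminescence after 72 h compound exposure (37 C, 5% CO2; nine concentration levels, triplicate) of overnight-plated cells at 4×10^3 per well. IC50 calculated from survival % relative to untreated cells after medium-background subtraction.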

[2] = test system: HCT 116 colorectal cancer cells; experiment: Cancer cell survival (CellTiter-Glo), HCT 116; conditions: Homo sapiens, HCT 116 cells, 72 h, read-out: Cell survival at given concentration
Procedure, shortened: as §1

A549 lung cancer cells = experiment: Cancer cell survival (CellTiter-Glo), A549; conditions: Homo sapiens, 72 h, read-out: Cell survival at given concentration
Procedure, shortened: as §1

[3] = test system: PC-3 prostate cancer cells; experiment: Cancer cell survival (CellTiter-Glo), PC-3; conditions: Homo sapiens, PC-3 cells, 72 h, read-out: Cell survival at given concentration
Procedure, shortened: as §1

A-431 skin cancer cells = experiment: Cancer cell survival (CellTiter-Glo), A-431; conditions: Homo sapiens, A-431 cells, 72 h, read-out: Cell survival at given concentration
Procedure, shortened: as §1

AGS stomach cancer cells = experiment: Cancer cell survival (CellTiter-Glo), AGS; conditions: 72 h
Procedure, shortened: as §1

[4] = Human Regulatory T Cell Differentiation Assay; conditions: human, primary naïve CD4+ T cells isolated from PBMCs, read-out: Cell viability % DMSO
Procedure: Peripheral blood mononuclear cells (PBMCs) from whole blood donated by health volunteers were separated by Ficoll-Paque gradient centrifugation and naïve CD4^+ T cells were subsequently isolated using magnet beads (EasySep™ Human Naïve CD4^+ T Cell Isolation Kit, Cambridge, Mass.). For regulatory T cell (Treg) differentiation assay, naïve CD4^+ T cells were cultured (1-10×10^4 cells) in CTS OpTmizer medium for 6 days and stimulated with 5 ng/ml TGF-β, 100 U/ml IL-2, and ImmunoCult™ Human […] T Cell Activator; Stemcell #10990) with/without Compounds. Cell viability was determined using a viability dye (eBioscience Fixable Viability Dye eFluor 780: ThermoFisher 65-0865-14) at 1:500 dilution. The cells were gated for Treg, defined as Live, CD11c^−, CD14^−, CD19^−, CD8^−, CD4^+, CD3^+, CD25^+, FOXP3^+. Percent (%) Tregs were calculated as percentage of CD4^+, CD25^+, FOXP3^+ cells over total CD4^+ T cells. Statistical analysis was performed with GraphPad Prism Software Using One-Way ANOVA.

`O=C[C@H](O)[C@@H](O)[C@@H](O)CO` [L-arabinose] gave a viability at 0.101 µM (T24 bladder cancer cells; T-24, 101 nM) of 100%, a viability at 0.318 µM (T24 bladder cancer cells; T-24, 318 nM) of 103% and a viability at 1 µM (T24 bladder cancer cells; T-24, 1 μM) of 100%. The viability at 3 µM (T24 bladder cancer cells; T-24, 3 μM) was 103%, the viability at 10 µM (T24 bladder cancer cells; T-24, 10 μM) was 102% and the viability at 32 µM (T24 bladder cancer cells; T-24, 32 μM) was 105%. For the same molecule, the viability at 100 µM (T24 bladder cancer cells; T-24, 100 μM) was 101%, the viability at 316 µM (T24 bladder cancer cells; T-24, 316 μM) was 101% and the viability at 1000 µM (T24 bladder cancer cells; T-24, 1000 μM) was 104%. The viability at 0.101 µM ([1]; 101 nM) was 100%, the viability at 0.318 µM ([1]; 318 nM) was 100% and the viability at 1 µM ([1]; 1 μM) was 100%. For the same molecule, the viability at 3 µM ([1]; 3 μM) was 99%, the viability at 10 µM ([1]; 10 μM) was 102% and the viability at 32 µM ([1]; 32 μM) was 102%. It also gave a viability at 100 µM ([1]; 100 μM) of 103%, a viability at 316 µM ([1]; 316 μM) of 102% and a viability at 1000 µM ([1]; 1000 μM) of 102%. For the same molecule, the viability at 0.101 µM (MCF7 breast cancer cells; 101 nM) was 99%, the viability at 0.318 µM (MCF7 breast cancer cells; 318 nM) was 101% and the viability at 1 µM (MCF7 breast cancer cells; 1 μM) was 98%. For the same molecule, the viability at 3 µM (MCF7 breast cancer cells; 3 μM) was 101%, the viability at 10 µM (MCF7 breast cancer cells; 10 μM) was 99% and the viability at 32 µM (MCF7 breast cancer cells; 32 μM) was 101%. The viability at 100 µM (MCF7 breast cancer cells; 100 μM) was 99%, the viability at 316 µM (MCF7 breast cancer cells; 316 μM) was 98% and the viability at 1000 µM (MCF7 breast cancer cells; 1000 μM) was 98%. It also gave a viability at 0.101 µM ([2]; 101 nM) of 101%, a viability at 0.318 µM ([2]; 318 nM) of 101% and a viability at 1 µM ([2]; 1 μM) of 101%. The viability at 3 µM ([2]; 3 μM) was 103%, the viability at 10 µM ([2]; 10 μM) was 103% and the viability at 32 µM ([2]; 32 μM) was 104%. For the same molecule, the viability at 100 µM ([2]; 100 μM) was 104%, the viability at 316 µM ([2]; 316 μM) was 102% and the viability at 1000 µM ([2]; 1000 μM) was 99%. For the same molecule, the viability at 0.101 µM (A549 lung cancer cells; 101 nM) was 101%, the viability at 0.318 µM (A549 lung cancer cells; 318 nM) was 103% and the viability at 1 µM (A549 lung cancer cells; 1 μM) was 104%. For the same molecule, the viability at 3 µM (A549 lung cancer cells; 3 μM) was 102%, the viability at 10 µM (A549 lung cancer cells; 10 μM) was 103% and the viability at 32 µM (A549 lung cancer cells; 32 μM) was 103%. The viability at 100 µM (A549 lung cancer cells; 100 μM) was 102%, the viability at 316 µM (A549 lung cancer cells; 316 μM) was 102% and the viability at 1000 µM (A549 lung cancer cells; 1000 μM) was 104%. For the same molecule, the viability at 0.101 µM ([3]; 101 nM) was 103%, the viability at 0.318 µM ([3]; 318 nM) was 100% and the viability at 1 µM ([3]; 1 μM) was 100%. The viability at 3 µM ([3]; 3 μM) was 101%, the viability at 10 µM ([3]; 10 μM) was 103% and the viability at 32 µM ([3]; 32 μM) was 101%. It also gave a viability at 100 µM ([3]; 100 μM) of 100%, a viability at 316 µM ([3]; 316 μM) of 101% and a viability at 1000 µM ([3]; 1000 μM) of 100%. The viability at 0.101 µM (A-431 skin cancer cells; 101 nM) was 103%, the viability at 0.318 µM (A-431 skin cancer cells; 318 nM) was 102% and the viability at 1 µM (A-431 skin cancer cells; 1 μM) was 102%. For the same molecule, the viability at 3 µM (A-431 skin cancer cells; 3 μM) was 103%, the viability at 10 µM (A-431 skin cancer cells; 10 μM) was 103% and the viability at 32 µM (A-431 skin cancer cells; 32 μM) was 105%. It also gave a viability at 100 µM (A-431 skin cancer cells; 100 μM) of 105%, a viability at 316 µM (A-431 skin cancer cells; 316 μM) of 105% and a viability at 1000 µM (A-431 skin cancer cells; 1000 μM) of 102%. For the same molecule, the viability at 0.101 µM (AGS stomach cancer cells; 101 nM, read-out: Cell survival at given concentration) was 100%, the viability at 0.318 µM (AGS stomach cancer cells; 318 nM, read-out: Cell survival at given concentration) was 102% and the viability at 1 µM (AGS stomach cancer cells; 1 μM, Table 10.1, read-out: Cell survival at given concentration) was 101%. The viability at 3 µM (AGS stomach cancer cells; 3 μM, Table 10.1, read-out: Cell survival at given concentration) was 102%, the viability at 10 µM (AGS stomach cancer cells; 10 μM, Table 10.1, read-out: Cell survival at given concentration) was 102% and the viability at 32 µM (AGS stomach cancer cells; 32 μM, Table 10.1, read-out: Cell survival at given concentration) was 104%. It also gave a viability at 100 µM (AGS stomach cancer cells; 100 μM, Table 10.1, read-out: Cell survival at given concentration) of 105%, a viability at 316 µM (AGS stomach cancer cells; 316 μM, read-out: Cell survival at given concentration) of 102% and a viability at 1000 µM (AGS stomach cancer cells; 1000 μM, read-out: Cell survival at given concentration) of 101%. For the same molecule, the viability at 6 days, 0.5 mM ([4]; 0.5 mM) was 90 to 110% and the viability at 6 days, 1 mM ([4]; 1 mM) was 90 to 110%.
